# Patent US10016383B2, “Inhibitors of metallo-β-lactamase-enzymes” (McMaster University, priority 2013, dated 2018)
# “Also recorded” adds a separate entry of the source.
# Legend:
# [1] = molecular target: T1, VIM-2 (Escherichia coli, UniProt Q5U7L7); assay: Incubation of AM-A with metalloenzymes in Zn2+-depleted buffer; type: biochemical; details: extended incubation, AM-A 0.5 mM
# T1 construct: All β-lactamase overexpression constructs were generated without the leader peptide in a pET-28b plasmid containing a N-terminal His Tag; His tag (N); made in house; host or cells: E. coli BL21(DE3)
# Description: Enzyme (500 nM) was incubated with AM-A (500 μM) for 10 minutes. 20 μL of the above was diluted with 180 μL nitrocefin or FAPGG substrate for the following final concentrations: Enzyme (50 nM), FAPGG (50 μM)/nitrocefin (20 μM), AM-A (50 μM). Buffer (50 mM HEPES pH 7.5, 300 mM NaCl) was stirred overnight with 2 g/100 mL Chelex-100 (Biorad; Richmond, Calif.). Assays were read in 96-well microplate format at 490 nm using a Spectramax reader (Molecular Devices) at 37° C.
# [2] = molecular target: T2, NDM-1 (Klebsiella pneumoniae, UniProt C7C422); assay: ICP mass spectrometry of Zn in enzyme; details: NDM-1 inactivated by AM-A, ICP-MS
# Description: Inductively coupled mass spectrometry (ICP-MS) was used to analyze the ability of AM-A to chelate Zn^66 from purified NDM-1 (27-270). The NDM-1 protein was purified as previously described^26 and freshly exchanged using a 15 kDa cutoff dialysis tubing into ICP-MS buffer (20 mM HEPES, 100 mM NaCl, pH 7.5) overnight at 4° C. in order to remove any contaminating metals. The protein was concentrated to ˜5 mg/mL and varying concentrations of AM-A were incubated with the protein samples in triplicate for 3 hours at room temperature with gentle shaking. The protein-AM-A samples were again dialyzed overnight at 4° C. into ICP-MS buffer using 12-14 kDa cutoff D-tube dialyzer mini (EMD biosciences) microdialysis cassettes. The final protein was diluted to 1 mg/mL in ICP-MS buffer, followed by a 1/40 dilution in an internal standard (10 ug/L Sc45, 1% nitric acid, Inorganic Ventures). Prior to sample analysis, the ICP MS was calibrated using a standard solution containing the metal isotopes of interest (Inorganic Ventures). […] Quantitative analysis was performed in triplicate for each sample with 60 sweeps per reading using the peak-hopping mode with a 50 ms/AMU dwell time for each element. […] Isotope abundance was determined by integrating peak areas using the NexION software program, and the data was represented graphically using Microsoft Excel.
# Target sequence in this assay (C7C422 27-270 limits assumed): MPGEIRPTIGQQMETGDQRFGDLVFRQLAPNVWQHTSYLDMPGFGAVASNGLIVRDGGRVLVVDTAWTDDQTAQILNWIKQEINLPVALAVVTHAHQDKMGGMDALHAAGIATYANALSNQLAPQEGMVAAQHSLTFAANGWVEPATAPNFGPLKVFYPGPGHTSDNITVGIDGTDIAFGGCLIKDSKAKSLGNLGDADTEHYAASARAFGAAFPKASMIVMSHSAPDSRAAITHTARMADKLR
# [3] = rats, i.v.; cited from earlier work
# [4] = in vivo; cited from earlier work
# [5] = molecular target: T2, NDM-1; assay: IC50 enzyme inhibition assay, nitrocefin reporter substrate; type: biochemical; parameters: All β-lactamase overexpression constructs were generated without the leader peptide in a pET-28b plasmid containing a N-terminal His Tag; His tag (N, cleaved yes); SUMO (implied by the use of SUMO protease) (N, cleaved yes); made in house; host or cells: E. coli BL21(DE3)
# Description: Enzyme (NDM-1, 5 nM; VIM-2, 500 pM; CTX-M-15, 500 pM; KPC-2, 5 nM; OXA-48, 1 nM; TEM-1, 100 pM; ACE, 50 nM) was mixed with 30 μM nitrocefin (100 μM nitrocefin for TEM-1; 250 µM furanacryloyl-L-phenylalanylglycylglycine [FAPGG] for ACE^24) after a 5-10 minute preincubation with AM-A. Metallo-enzymes were supplemented with 10 μM ZnSO4. Assays were read in 96-well microplate format at 490 nm using a Spectramax reader (Molecular Devices) at 30-37° C.
# E. coli strain BW25113 was modified by deletion of the bamB and tolC genes so as to increase permeability to and reduce efflux of small molecules. This strain was then further modified by the single-copy chromosomal insertion of the blaNDM-1 gene under control of the pLac promoter. Microbial natural product extracts were screened against this strain in the presence of sublethal ¼ MIC meropenem. AM-A was purified from a hit extract and its structure elucidated by NMR, mass spectrometry and polarimetry. IC50 values for AM-A were determined using nitrocefin (for MBLs and Ser BLs) and furanacryloyl-L-phenylalanylglycylglycine (for ACE)^21 as reporter substrates against the following purified enzymes: MBLs IMP-7, VIM-2, and NDM-1; SBLs CTX-M-15, KPC-2, OXA-48, and TEM-1; as well as ACE from rabbit lung. […] FIC values were determined using standard methods^27. […]
# Target sequence in this assay (C7C422 29-270 limits assumed): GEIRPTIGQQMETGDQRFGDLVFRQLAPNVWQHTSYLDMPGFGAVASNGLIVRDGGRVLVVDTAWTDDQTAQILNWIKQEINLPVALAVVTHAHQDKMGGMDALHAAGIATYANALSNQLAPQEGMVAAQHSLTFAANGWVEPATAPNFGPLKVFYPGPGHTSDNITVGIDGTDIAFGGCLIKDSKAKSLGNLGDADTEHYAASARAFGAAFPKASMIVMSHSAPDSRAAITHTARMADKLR
# [6] = molecular target: T2, NDM-1; assay: Zn2+ restoration assay; type: biochemical; parameters: All β-lactamase overexpression constructs were generated without the leader peptide in a pET-28b plasmid containing a N-terminal His Tag; His tag (N, cleaved yes); SUMO (implied by the use of SUMO protease) (N, cleaved yes); made in house; host or cells: E. coli BL21(DE3); details: post-inactivation by AM-A
# Description: NDM-1 (5 nM) supplemented with […] ZnSO4 was incubated with 20 μM AM-A for 15 minutes at 30° C. Nitrocefin (30 μM) and ZnSO4 from 500 nM-40 μM were added to a final volume of 100 μL and absorbance at 490 nm was monitored using a Spectramax reader (Molecular Devices) for 30 minutes at 30° C. Percent residual activity was calculated from no AM-A control. Slightly negative percent residual activity was reported as 0.
# Target sequence in this assay (C7C422 29-270 limits assumed): as above
structure (smiles),measurement,setting,value
"N[C@H](CN[C@H](CN[C@@H](CC(=O)O)C(=O)O)C(=O)O)C(=O)O [AM-A, aspergillomarasmine A]",inactivation of VIM-2,[1],complete inactivation
same,loss of Zn from NDM-1,[2],~1.8 Zn equivalents
same,LD50,[3],250 mg/kg
same,effect on mean atrial blood pressure,[4],no effect
same,in vitro inhibition of NDM-1,[5],potent in vitro dose-dependent inhibition
same,NDM-1 activity after addition of excess ZnSO4,[6],enzymatic activity could be restored; also recorded: restores activity
